According to the supplement of paper PMC13207355:

What was measured:
Settings in all cases: exposure time: 72 h
E34 [1] = patient-derived glioblastoma stem cells of proneural subtype; assay: phenotypic distance (Euclidean, principal components) from DMSO controls (arbitrary units); higher = stronger morphological change
E31 [2] = patient-derived glioblastoma stem cells of proneural subtype; assay: as above
E28 [3] = patient-derived glioblastoma stem cells of classical subtype; assay: as above
E57 [4] = patient-derived glioblastoma stem cells of mesenchymal subtype; assay: as above
E21 [5] = patient-derived glioblastoma stem cells of mesenchymal subtype; assay: as above
E13 [6] = patient-derived glioblastoma stem cells of classical subtype; assay: as above
FT3469 [7] = normal neural stem cell line; assay: as above
E34 [8] = assay: surviving fraction (nuclei count normalised to DMSO); higher = more cells surviving (less toxic)
E31 [9] = assay: as above
E28 [10] = assay: as above
E57 [11] = assay: as above
E21 [12] = assay: as above
E13 [13] = assay: as above
FT3469 [14] = assay: as above
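Throughout, for phenotypic distance (Euclidean, principal components) from DMSO controls: cell Painting imaging in 384-well plates, CellProfiler features reduced to at least 20 principal components, Euclidean distance versus same-plate DMSO vehicle wells (0.1% v/v), median over six images per well.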
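Throughout, for surviving fraction (nuclei count normalised to DMSO): nuclei counted by high-content imaging of Hoechst-stained cells in laminin-coated 384-well plates, relative to 0.1% DMSO vehicle wells, with staurosporine as cell-death control.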

COc1cc([C@@H]2c3cc4c(cc3[C@@H](O[C@@H]3O[C@@H]5CO[C@@H](C)O[C@H]5[C@H](O)[C@H]3O)[C@H]3COC(=O)[C@H]23)OCO4)cc(OC)c1O [Etoposide]
Settings | phenotypic distance | surviving fraction
E13 [6], 4.11523 nM | 1.04 | –
E13 [6], 12.34567901 nM | 0.799 | –
E13 [6], 37.037 nM | 0.736 | –
E13 [6], 111.1111111 nM | 0.704 | –
E13 [6], 333.333 nM | 2.88 | –
E13 [6], 1000 nM | 4.56 | –
E13 [6], 3000 nM | 5.77 | –
E13 [13], 4.11523 nM | – | 1.03
E13 [13], 12.34567901 nM | – | 0.806
E13 [13], 37.037 nM | – | 0.901
E13 [13], 111.1111111 nM | – | 0.78
E13 [13], 333.333 nM | – | 0.516
E13 [13], 1000 nM | – | 0.473
E13 [13], 3000 nM | – | 0.374
E21 [5], 4.11523 nM | 0.716 | –
E21 [5], 12.34567901 nM | 0.855 | –
E21 [5], 37.037 nM | 0.967 | –
E21 [5], 111.1111111 nM | 1.35 | –
E21 [5], 333.333 nM | 2.88 | –
E21 [5], 1000 nM | 5.75 | –
E21 [5], 3000 nM | 5.93 | –
E21 [12], 4.11523 nM | – | 0.896
E21 [12], 12.34567901 nM | – | 0.855
E21 [12], 37.037 nM | – | 0.885
E21 [12], 111.1111111 nM | – | 0.812
E21 [12], 333.333 nM | – | 0.588
E21 [12], 1000 nM | – | 0.47
E21 [12], 3000 nM | – | 0.298
E28 [3], 4.11523 nM | 0.783 | –
E28 [3], 12.34567901 nM | 1.11 | –
E28 [3], 37.037 nM | 1.44 | –
E28 [3], 111.1111111 nM | 1.78 | –
E28 [3], 333.333 nM | 2.64 | –
E28 [3], 1000 nM | 2.9 | –
E28 [3], 3000 nM | 2.64 | –
E28 [10], 4.11523 nM | – | 0.881
E28 [10], 12.34567901 nM | – | 0.762
E28 [10], 37.037 nM | – | 0.621
E28 [10], 111.1111111 nM | – | 0.419
E28 [10], 333.333 nM | – | 0.436
E28 [10], 1000 nM | – | 0.266
E28 [10], 3000 nM | – | 0.364
E31 [2], 4.11523 nM | 0.939 | –
E31 [2], 12.34567901 nM | 0.828 | –
E31 [2], 37.037 nM | 1.58 | –
E31 [2], 111.1111111 nM | 3.2 | –
E31 [2], 333.333 nM | 4.03 | –
E31 [2], 1000 nM | 2 | –
E31 [2], 3000 nM | 2.86 | –
E31 [9], 4.11523 nM | – | 0.746
E31 [9], 12.34567901 nM | – | 0.823
E31 [9], 37.037 nM | – | 0.554
E31 [9], 111.1111111 nM | – | 0.493
E31 [9], 333.333 nM | – | 0.307
E31 [9], 1000 nM | – | 0.283
E31 [9], 3000 nM | – | 0.231
E34 [1], 4.11523 nM | 0.877 | –
E34 [1], 12.34567901 nM | 0.742 | –
E34 [1], 37.037 nM | 0.789 | –
E34 [1], 111.1111111 nM | 1.03 | –
E34 [1], 333.333 nM | 2.75 | –
E34 [1], 1000 nM | 3.46 | –
E34 [1], 3000 nM | 4.17 | –
E34 [8], 4.11523 nM | – | 0.83
E34 [8], 12.34567901 nM | – | 0.966
E34 [8], 37.037 nM | – | 0.848
E34 [8], 111.1111111 nM | – | 0.873
E34 [8], 333.333 nM | – | 0.668
E34 [8], 1000 nM | – | 0.534
E34 [8], 3000 nM | – | 0.557
E57 [4], 4.11523 nM | 0.758 | –
E57 [4], 12.34567901 nM | 0.794 | –
E57 [4], 37.037 nM | 0.549 | –
E57 [4], 111.1111111 nM | 1.24 | –
E57 [4], 333.333 nM | 4.25 | –
E57 [4], 1000 nM | 6.83 | –
E57 [4], 3000 nM | 7.52 | –
E57 [11], 4.11523 nM | – | 0.919
E57 [11], 12.34567901 nM | – | 1.01
E57 [11], 37.037 nM | – | 0.959
E57 [11], 111.1111111 nM | – | 0.851
E57 [11], 333.333 nM | – | 0.435
E57 [11], 1000 nM | – | 0.295
E57 [11], 3000 nM | – | 0.182
FT3469 [7], 4.11523 nM | 0.576 | –
FT3469 [7], 12.34567901 nM | 0.799 | –
FT3469 [7], 37.037 nM | 3.73 | –
FT3469 [7], 111.1111111 nM | 1.07 | –
FT3469 [7], 333.333 nM | 1.54 | –
FT3469 [7], 1000 nM | 2.2 | –
FT3469 [7], 3000 nM | 1.92 | –
FT3469 [14], 4.11523 nM | – | 0.827
FT3469 [14], 12.34567901 nM | – | 0.774
FT3469 [14], 37.037 nM | – | 0.902
FT3469 [14], 111.1111111 nM | – | 0.731
FT3469 [14], 333.333 nM | – | 0.662
FT3469 [14], 1000 nM | – | 0.582
FT3469 [14], 3000 nM | – | 0.566

COC(=O)Nc1nc2cc(Sc3ccccc3)ccc2[nH]1 [Fenbendazole]
Settings | phenotypic distance | surviving fraction
E13 [6], 4.1 nM | 0.824 | –
E13 [6], 12.3 nM | 0.763 | –
E13 [6], 37 nM | 0.771 | –
E13 [6], 111.1 nM | 1.88 | –
E13 [6], 333.3 nM | 3.45 | –
E13 [6], 1000 nM | 6.64 | –
E13 [6], 3000 nM | 6.13 | –
E13 [13], 4.1 nM | – | 1.02
E13 [13], 12.3 nM | – | 1.07
E13 [13], 37 nM | – | 1.05
E13 [13], 111.1 nM | – | 0.86
E13 [13], 333.3 nM | – | 0.548
E13 [13], 1000 nM | – | 0.179
E13 [13], 3000 nM | – | 0.236
E21 [5], 4.1 nM | 0.689 | –
E21 [5], 12.3 nM | 0.58 | –
E21 [5], 37 nM | 1.03 | –
E21 [5], 111.1 nM | 1.63 | –
E21 [5], 333.3 nM | 2.19 | –
E21 [5], 1000 nM | 7.35 | –
E21 [5], 3000 nM | 5.94 | –
E21 [12], 4.1 nM | – | 1.07
E21 [12], 12.3 nM | – | 1.02
E21 [12], 37 nM | – | 0.982
E21 [12], 111.1 nM | – | 0.874
E21 [12], 333.3 nM | – | 0.941
E21 [12], 1000 nM | – | 0.105
E21 [12], 3000 nM | – | 0.122
E28 [3], 4.1 nM | 0.869 | –
E28 [3], 12.3 nM | 0.342 | –
E28 [3], 37 nM | 0.965 | –
E28 [3], 111.1 nM | 1.03 | –
E28 [3], 333.3 nM | 1.48 | –
E28 [3], 1000 nM | 3.39 | –
E28 [3], 3000 nM | 3.63 | –
E28 [10], 4.1 nM | – | 1
E28 [10], 12.3 nM | – | 1.09
E28 [10], 37 nM | – | 1.1
E28 [10], 111.1 nM | – | 0.927
E28 [10], 333.3 nM | – | 1.07
E28 [10], 1000 nM | – | 0.359
E28 [10], 3000 nM | – | 0.304
E31 [2], 4.1 nM | 0.332 | –
E31 [2], 12.3 nM | 0.747 | –
E31 [2], 37 nM | 0.989 | –
E31 [2], 111.1 nM | 1.13 | –
E31 [2], 333.3 nM | 1.96 | –
E31 [2], 1000 nM | 6.33 | –
E31 [2], 3000 nM | 5.86 | –
E31 [9], 4.1 nM | – | 1.12
E31 [9], 12.3 nM | – | 0.906
E31 [9], 37 nM | – | 0.836
E31 [9], 111.1 nM | – | 0.749
E31 [9], 333.3 nM | – | 0.526
E31 [9], 1000 nM | – | 0.0787
E31 [9], 3000 nM | – | 0.0818
E34 [1], 4.1 nM | 0.744 | –
E34 [1], 12.3 nM | 0.832 | –
E34 [1], 37 nM | 0.751 | –
E34 [1], 111.1 nM | 0.935 | –
E34 [1], 333.3 nM | 1.56 | –
E34 [1], 1000 nM | 4.45 | –
E34 [1], 3000 nM | 5.29 | –
E34 [8], 4.1 nM | – | 1.06
E34 [8], 12.3 nM | – | 0.988
E34 [8], 37 nM | – | 0.935
E34 [8], 111.1 nM | – | 1.01
E34 [8], 333.3 nM | – | 0.795
E34 [8], 1000 nM | – | 0.361
E34 [8], 3000 nM | – | 0.349
E57 [4], 4.1 nM | 0.515 | –
E57 [4], 12.3 nM | 0.484 | –
E57 [4], 37 nM | 1.23 | –
E57 [4], 111.1 nM | 1.6 | –
E57 [4], 333.3 nM | 2.13 | –
E57 [4], 1000 nM | 4.89 | –
E57 [4], 3000 nM | 4.66 | –
E57 [11], 4.1 nM | – | 1
E57 [11], 12.3 nM | – | 1.05
E57 [11], 37 nM | – | 1.06
E57 [11], 111.1 nM | – | 0.964
E57 [11], 333.3 nM | – | 0.841
E57 [11], 1000 nM | – | 0.0618
E57 [11], 3000 nM | – | 0.0799
FT3469 [7], 4.1 nM | 0.898 | –
FT3469 [7], 12.3 nM | 0.598 | –
FT3469 [7], 37 nM | 0.489 | –
FT3469 [7], 111.1 nM | 1.42 | –
FT3469 [7], 333.3 nM | 1.54 | –
FT3469 [7], 1000 nM | 2.9 | –
FT3469 [7], 3000 nM | 2.71 | –
FT3469 [14], 4.1 nM | – | 1.03
FT3469 [14], 12.3 nM | – | 1.1
FT3469 [14], 37 nM | – | 0.864
FT3469 [14], 111.1 nM | – | 1.02
FT3469 [14], 333.3 nM | – | 0.864
FT3469 [14], 1000 nM | – | 0.511
FT3469 [14], 3000 nM | – | 0.622
